According to patent US20090264384A1, “INDOLE, BENZIMIDAZOLE, AND BENZOLACTAM BORONIC ACID COMPOUNDS, ANALOGS THEREOF AND METHODS OF USE THEREOF” (Nuada, Inc., priority 2004, published 2009):

Assays:
[1] = Various In Vitro Cell Biology Assays (Example 41, Tables 23-26); type: cell-based; settings: PBMC, 24 h, IL-1 □ secretion (h) (PBMC), LPS 1 μg/ml, 24 h; 3×10^−6 M; read-out: % Inhibition of Control Values
Method: In each experiment, the respective reference compound was tested concurrently with the test compounds in order to assess the assay suitability. It was tested at several concentrations (for IC50 value determination).
The test compounds were assayed at 3×10^−6 M.
Results. The results are expressed as a percent of control values and as a percent inhibition of control values obtained in the presence of the test compounds.
The IC50 values (concentration causing a half-maximal inhibition of control values) and Hill coefficients (nH) were determined by non-linear regression analysis of the inhibition curves using Hill equation curve fitting, a summary of the data is shown in Table 26. The IC50 value for each reference compound is indicated was determined (data not shown) and was within accepted limits of the historic average ±0.5 log units.

[2] = tested on: colitis provoked by trinitrobenzene sulphonic acid (TNBS); assay: Rat model of colitis provoked by TNBS, 3 days, treatment from Day −1 (CCI-7308); type: in vivo; settings: for attenuation of TNBS-induced fall in body weight (% change in body weight at Day 0) / reduction in area of macroscopic colonic injury / reduction in colonic MPO activity / reduction in colon weight / reduction in colonic TNF-α levels: vs CMC group; for reduction in area of macroscopic colonic injury: 72 h after TNBS
Description: In the study, colonic macroscopic injury has been assessed, as has colonic weight as a reflection of colonic oedema, along with determination of MPO activity (Bradley et al, 1982) as an index of white cell infiltration for the evaluation of tissue injury. The methods and protocol used were substantially similar to those in Example 39, with some differences described below. TNBS Challenge—Male Wistar rats (270-330 g) were randomised into groups of 10-11 before commencement of the study. The following primary parameters were measured in the study: In addition, the weight of the colonic segment was assessed as an indirect and non-specific marker of oedema. The body weight of the animals was also determined and expressed as % change from the day of challenge. Treatments. All challenged groups were dosed orally twice daily from Day −1. The groups for study were: Colon homogenates for cytokine measurements. […] Tissue homogenates were lysed for 30 min. on ice, and then centrifuged (10 min., 14, 000×g). The aliquots of the supernatant were stored at −20° C. until use (Ten Hove et al., 2001). Tumour Necrosis Factor-a Activity. The TNF-α levels were determined with quantitative TNF-α solid-phase Enzyme Linked ImmunoSorbent Assay (ELISA), which is based on the sandwich principle (HyCult biotechnology b. V;. Cat number: […] At the end of the ELISA assay, the samples were measured spectrophotometrically (Benchmark Microplate reader, Bio-Rad Lab; λ=450 nm). The samples were diluted 2 or 4 times with the sample buffer included in the kit. The TNF-α values were expressed as pg/mg protein. This commercially available kit (Hycult Biotechnology b.v. Uden, The Netherlands. Catalogue number: […]

[3] = tested on: chronic colitis provoked by trinitrobenzene sulphonic acid (TNBS); assay: Rat model of chronic colitis provoked by TNBS over 14 days, treatment from Day 1; type: in vivo; settings: for macroscopic Damage Score / reduction in colon weight / reduction in colonic MPO activity / reduction in colonic TNF-α levels / reduction in colonic lesion area (% of the total area measured): Day 14; for reduction in colon weight / reduction in colonic MPO activity / reduction in colonic TNF-α levels / reduction in colonic lesion area (% of the total area measured) / attenuation of TNBS-induced fall in body weight (% change of body weight at Day −1): vs CMC group; for attenuation of TNBS-induced fall in body weight (% change of body weight at Day −1): over 14 days
Description: In the chronic model of colitis, assessment of the colonic inflammation is made 14 days or longer, after the intracolonic challenge with TNBS (Boughton-Smith et al, 1988a, 1988b; Wallace et al, 1989; Rachmilewitz et al, 1989; Wallace and Keenan, 1990; Ameho et al, 1987; Sans et al, 1999; Sun et al, 2001; Maric et al, 2003; Moreels et al, 2004; Gonzalez et al, 2004). This model allows treatment with experimental agents to commence following the establishment of the colonic injury, typically 24 hours after the TNBS challenge (Galvez et al, 2000, Villegas, 2003, Gonzalez et al, 2004). The model should therefore identify the ability of the experimental compounds to accelerate the diminution of the inflammatory response and to promote healing of the colonic lesions. This model thus has relevance additional to the acute model, as the clinical correlate is the therapeutic intervention in patients with existing IBD not in remission or with flare-up, to reduce the crisis. This contrasts with the acute TNBS model where the compounds are administered one or two days prior to challenge, the clinical correlate being the use of prophylactic therapy to prevent flare-up and maintain remission in IBD patients.
In this current study, the low intracolonic challenge concentration of TNBS used in the acute studies was also used for the chronic study over a 14 day period. This concentration and timing was based on the findings from pilot studies where a range of concentrations of TNBS and treatment conditions were evaluated over a 14 day period. […].
The methods and protocol used were substantially similar to those in Example 39-40, with some differences described below.
TNBS Challenge. Male Wistar rats (average body weight, 210 g) were randomised into groups before commencement of the study. In all groups, including the non-challenged and non-treated absolute control group, food was withdrawn for 12 h before TNBS administration (i.e. overnight on Day −1), but the rats were allowed free access to drinking water.
On the morning of the day of challenge (Day 0, between 9.00 and 1 1.00 a.m.), the rats were transiently anaesthetised with ether and the TNBS solution (10 mg in 0.25 ml of 50% ethanol) was instilled approximately 6-8 cm into the colon using a soft plastic catheter inserted in the rat rectum. The rats were allowed to recover with free access to food and drinking water. At the end of the experiment, on the morning of Day 14, between 9.00 and 11.00), the colon was dissected, and the distal 8 cm photographed and immediately processed or stored appropriately for subsequent analyses.
The following primary parameters were measured in the study: macroscopic scoring of distal 8 cm of colon; myeloperoxidase levels in segments of distal 8 cm of colon; TNF-α levels in segments of distal 8 cm of colon.
In addition, the weight of the standard colonic segment was assessed as an indirect and non-specific marker of oedema. The body weight of the animals was also determined each evening of the study, starting on Day-1, and also on the morning of Day 14. The data is shown graphically as the % change from the weight on Day-1, prior to challenge.
Treatments. The TNBS challenged groups for study were: (a) Vehicle control 0.5% carboxy methyl cellulose (CMC) p.o., twice daily from Day; (b) CCI-7506 25 mg/kg, p.o., twice daily from Day 1 (50 mg/kg/day total); (c) CCI-7506 50 mg/kg, p.o., twice daily from Day 1 (100 mg/kg/day total); (d) CCI-7507 12.5 mg/kg, p.o., twice daily from Day 1 (25 mg/kg/day total); (e) CCI-7507 25 mg/kg, p.o., twice daily from Day 1(50 mg/kg/day total); […]; (g) Infliximab 3 mg/kg, single slow i.v. injection, on Day 1 and Day7.
The experimental compounds that were administered orally were given twice a day from Day 1, i.e. 24 h following TNBS administration, for the remainder of the 14 day experimental period. Infliximab was administered by slow i.v. injection of Day 1 and on Day 7. […]

[4] = 4 mg/kg/day p.o. in divided doses
[5] = 20 mg/kg/day p.o. in divided doses
[6] = 100 mg/kg/day p.o. in divided doses

COc1ccc(-c2nc3ccccc3n2CCCCCB(O)O)cc1 [CCI-7308]
inhibition at 3 µM [1]: 68%
attenuation of TNBS-induced fall in body weight (% change in body weight at Day 0) ([2]; 4 mg/kg/day p.o. in divided doses b.i.d.): significantly different from the challenged CMC control group on Day 1
reduction in area of macroscopic colonic injury [2, 4]: did not reach significance
reduction in colonic MPO activity [2, 4]: significant (P<0.001) reduction in colonic MPO levels at all three dose levels
attenuation of TNBS-induced fall in body weight (% change in body weight at Day 0) ([2]; 20 mg/kg/day p.o. in divided doses b.i.d.): significantly different from the CMC group on Days 1, 2 and 3
reduction in area of macroscopic colonic injury [2, 5]: statistically significant
reduction in colon weight [2, 5]: statistically significant
reduction in colonic MPO activity [2, 5]: significant (P<0.001) reduction in colonic MPO levels at all three dose levels
reduction in colonic TNF-α levels [2, 5]: achieving significance
attenuation of TNBS-induced fall in body weight (% change in body weight at Day 0) ([2]; 100 mg/kg/day p.o. in divided doses b.i.d.): preventing the fall in body weight on all 3 days post-challenge
reduction in area of macroscopic colonic injury [2, 6]: statistically significant
reduction in colon weight [2, 6]: statistically significant
reduction in colonic MPO activity [2, 6]: significant (P<0.001) reduction in colonic MPO levels at all three dose levels
reduction in colonic TNF-α levels [2, 6]: achieving significance
relative potency versus sulfasalazine in reducing macroscopic injury ([2]; preliminary indication, from comparison of molecular weights): ~2.5 times

COc1ccc(-c2nc3ccccc3n2CCCCCB(O)O)cc1 [CCI-7507]
macroscopic Damage Score ([3]; 25 mg/kg/day p.o. from Day 1): reduced the damage score
reduction in colon weight ([3]; 25 mg/kg/day p.o. from Day 1): significantly reduced the colonic weight of the standard segment at both doses
reduction in colonic MPO activity ([3]; 25 mg/kg/day p.o. from Day 1): significant and dose-dependent fall in the elevated MPO activity at both dose levels
reduction in colonic TNF-α levels ([3]; 25 mg/kg/day p.o. from Day 1): caused a significant reduction in the elevated levels of TNF-α
reduction in colonic lesion area (% of the total area measured) ([3]; 25 mg/kg/day p.o. from Day 1): statistically significant for both doses
attenuation of TNBS-induced fall in body weight (% change of body weight at Day −1) ([3]; 25 mg/kg/day p.o. in divided doses from Day 1): significantly different from that in the CMC challenged group (P<0.05) on Days 2, 3, 4, 8, 9 and 10 post-challenge
macroscopic Damage Score ([3]; 50 mg/kg/day p.o. from Day 1): reduced the damage score
reduction in colon weight ([3]; 50 mg/kg/day p.o. from Day 1): significantly reduced the colonic weight of the standard segment at both doses
reduction in colonic MPO activity ([3]; 50 mg/kg/day p.o. from Day 1): significant and dose-dependent fall in the elevated MPO activity at both dose levels
reduction in colonic TNF-α levels ([3]; 50 mg/kg/day p.o. from Day 1): caused a significant reduction in the elevated levels of TNF-α
reduction in colonic lesion area (% of the total area measured) ([3]; 50 mg/kg/day p.o. from Day 1): statistically significant for both doses
attenuation of TNBS-induced fall in body weight (% change of body weight at Day −1) ([3]; 50 mg/kg/day p.o. in divided doses from Day 1): significantly different form the CMC group on all days from Day 2 to 10
